From patent US20120201762A1, “ORAL CARE COMPOSITION” (COLGATE-PALMOLIVE COMPANY, priority 2009, published 2012)

Assays:
VSC in whole saliva [1] = assay: Reduction of VSC in whole saliva incubated overnight with cysteine and an amino acid (GC); settings: for VSC Reduction (%): relative to saliva and cysteine alone, 10% of 0.1% amino acid solution added to 50% whole saliva, overnight incubation; for Effect on VSC in saliva (in words): whole saliva with cysteine
Procedure: The effect of serine and other amino acids on VSC was tested. Whole saliva was incubated overnight with cysteine and an additional amino acid selected from serine, proline, tyrosine, glycine, aspargine, glutamic acid, and histidine. In this experiment, 10% of 0.1% amino acid solution was added to 50% whole saliva. GC measurements were made for VSC.

indole in whole saliva [2] = assay: Indole production in whole saliva incubated with tryptophan, zinc lactate with and without serine (GC); settings: for Indole (ppm): serine 0.42% where present, whole saliva with tryptophan 0.14%, overnight at 37° C.
Procedure: The effect of zinc lactate and serine on indole was tested. Whole saliva with tryptophan (0.14%), various concentrations of zinc lactate, and when necessary, serine (0.42%), was incubated overnight at 37° C. After 24 h, the samples were allowed to cool to 25° C. The samples were extracted with hexanes (2 mL) and the organic layer (1 mL) was used for GC quantification.

indole in whole saliva [3] = assay: Reduction of indole in whole saliva incubated with tryptophan and serine (hexanes extraction, GC); settings: whole saliva with tryptophan 0.14%; for Area Under the Curve (AUC), indole by GC: overnight at 37° C., control without serine 642403
Procedure: The effect of serine on indole was tested. Whole saliva with tryptophan (0.14%) and various concentrations of serine was incubated overnight at 37° C. After 24 h, the samples were allowed to cool to 25° C. The samples were extracted with hexanes and the organic layer was used for GC quantification.

VSC in whole saliva [4] = assay: Headspace VSC in whole saliva incubated with zinc lactate with and without serine (GC); settings: zinc lactate 0.16%
Procedure: The effect of zinc lactate and serine on VSC was tested. Whole saliva with tryptophan (0.14%), zinc lactate (0.16%), and when necessary, serine (0.42%), was incubated overnight at 37° C. After 24 h, the samples were allowed to cool to 25° C. The samples were then quantified for headspace VSC using a GC.

NC(=O)C[C@H](N)C(=O)O [Asparagine]
VSC Reduction (%) (VSC in whole saliva [1]): −2.14%

N[C@@H](CCC(=O)O)C(=O)O [Glutamic acid, glutamic acid]
VSC Reduction (%) (VSC in whole saliva [1]): −5.2%

NCC(=O)O [Glycine, glycine]
VSC Reduction (%) (VSC in whole saliva [1]): 14%

N[C@@H](Cc1c[nH]cn1)C(=O)O [Histidine, histidine]
VSC Reduction (%) (VSC in whole saliva [1]): 1.36%

O=C(O)[C@@H]1CCCN1 [Proline, proline]
VSC Reduction (%) (VSC in whole saliva [1]): 6.99%

N[C@@H](CO)C(=O)O [Serine, (2S)-2-amino-3-hydroxypropanoic acid]
Effect of serine added to zinc lactate on indole production (in words) (indole in whole saliva [2]; various concentrations of zinc lactate, serine 0.42%): enhances the effect of zinc lactate and reduces indole production | Area Under the Curve (AUC), indole by GC (indole in whole saliva [3]; serine 0.21%): 584720 | Area Under the Curve (AUC), indole by GC (indole in whole saliva [3]; serine 0.42%): 532053 | Area Under the Curve (AUC), indole by GC (indole in whole saliva [3]; serine 0.84%): 542136 | Effect on amount of indole in saliva (in words) (indole in whole saliva [3]): able to reduce amount of indole in saliva | VSC Reduction (%) (VSC in whole saliva [1]): 36.56% | Effect on VSC in saliva (in words) (VSC in whole saliva [1]): greatest percent reduction of VSC | Effect on VSC in saliva (in words) (VSC in whole saliva [1]; listed as serine): able to reduce VSC in saliva | Effect of serine added to zinc lactate on VSC production (in words) (VSC in whole saliva [4]; serine 0.42%): enhances the effect of zinc lactate and reduces VSC production

N[C@@H](Cc1ccc(O)cc1)C(=O)O [Tyrosine, tyrosine]
VSC Reduction (%) (VSC in whole saliva [1]): 0.06%

CC(O)C(=O)[O-].CC(O)C(=O)[O-].[Zn+2] (stereo not shown) [Zinc Lactate, zinc lactate]
Indole (ppm) (indole in whole saliva [2]; zinc lactate 0.09%): 9.99 ppm | Indole (ppm) (indole in whole saliva [2]; zinc lactate 0.16%): 5.09 ppm | Indole (ppm) (indole in whole saliva [2]; zinc lactate 0.23%): 4.71 ppm | VSC (ppb) (VSC in whole saliva [4]; headspace VSC, whole saliva with tryptophan 0.14%, serine 0.42% where present, overnight at 37° C.): 109.25 ppb
